One test has as its target T1, hOX2R (Homo sapiens, UniProt O43614).
T1 construct: expressed in transfected cells
T1 sequence (O43614 1-444): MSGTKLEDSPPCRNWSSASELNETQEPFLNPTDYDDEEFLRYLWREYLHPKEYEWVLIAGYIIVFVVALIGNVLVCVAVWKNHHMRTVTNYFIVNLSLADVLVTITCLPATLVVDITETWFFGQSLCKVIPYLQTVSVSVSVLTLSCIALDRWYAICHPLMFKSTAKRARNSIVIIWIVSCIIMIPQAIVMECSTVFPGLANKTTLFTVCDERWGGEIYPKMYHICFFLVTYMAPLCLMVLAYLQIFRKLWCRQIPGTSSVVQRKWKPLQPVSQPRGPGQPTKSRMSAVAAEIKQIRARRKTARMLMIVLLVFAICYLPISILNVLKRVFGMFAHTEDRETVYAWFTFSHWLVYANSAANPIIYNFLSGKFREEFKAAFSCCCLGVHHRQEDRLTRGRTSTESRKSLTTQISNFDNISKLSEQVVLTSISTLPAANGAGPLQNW
The test is described as follows: In vitro test of OX2R: calcium signal change in cells detected with FLIPR. It is filed as cell-based. Conditions: HEK293-OX2 stable cell strain, Fluo-4 AM calcium signal, Orexin A at EC70. The method, then: (§1) The inhibitive effect of a compound on OX1 and OX2 GPCR receptor was evaluated by detecting calcium signal change in cells with FLIPR, and IC50 value of compound was used as an indication.
(§2) Experimental Materials: • Cell line: HEK293-OX1 and OX2 stable cell strain • HEK293-OX1 cell culture media (DMEM, Invitrogen#11960-044, 10% serum Gibco#10099141, L-Glutamine 1×, Gibco#25030, sodium pyruvate 1×, Gibco #11360, Geneticin 300 μg/ml, Gibco #10131). • HEK293-OX2 cell culture media (DMEM, Invitrogen#11960-044, 10% serum Gibco#10099141, L-Glutamine 1×, Gibco#25030, sodium pyruvate 1×, Gibco #11360, Geneticin 300 μg/ml, Gibco #10131, Blasticin 2 μg/ml, Invitrogen # R21001). • Pancreatic enzyme (Invitrogen, #25200-072) • DPBS (Hyclone, #SH30028.01B) • Fluo-4 AM, Invitrogen# F14202 • F-127, Invitrogen # P3000MP • Probenecid, Sigma # P8761 • 384-well cell plate, Greiner #781946 • 384-well compound plate, Greiner #781280 • CO2 incubator, Thermo#371 • Centrifuge, Eppendorf #5810R • Vi-cell cytometry, Beckman Coulter • POD 810 Plate Assembler Automatic microplate pretreatment system • Labcyte FLIPR, Molecular Device.
(§3) a) cell inoculation (HEK293-OX1 and HEK293-OX2 cells) • 1) The medium trypsin, and DPBS were preheated at 37° C. under water bath. Culture medium of cells was sucked and cells were washed with 10 mL DPBS. • 2) The preheated trypsin was added into the culture bottle which was rotated so that trypsin uniformly covered the bottle. It was placed in an incubator (37° C., 5% CO2) to digest for 1-2 minutes; • 3) Each T150 was suspended with 10-15 mL of culture medium, and centrifuged at 800 rpm for 5 minutes. Cells were resuspended with 10 mL medium, and 1 mL of the cell re-suspension was sucked out and counted with Vi-cell cytometry. • 4) The OX1 cells were diluted with culture medium to 5×10^5 cells/mL, and OX2 cells were diluted to 4×10^5 cells/mL. The diluted cells were added into 384 plate (Greiner. 781946) with multichannel pipettes (50 μL/hole, OX1 cells: 25000 cells/hole; and OX2 cells: 20000 cells/hole). The cell plate was placed in an incubator (37° C., 5% CO2) overnight.
(§4) b) loading of the compound: • 1) DMSO was used to dilute the compound into 20 mM by using 3-fold dilution. 8 gradients in duplicate wells were used. Echo liquid handler was used to add the compound into a compound plate. Then 20 μL buffer was added to ensure that the final DMSO concentration was 0.1%.
(§5) c) FLIPR Experiment: • 1) The cell culture medium in 384-well plate was washed away with a vacuum pump. 30 μL fluorescent dye Fluo4AM was added. […] 8 gradients in duplicate wells were used. Then the DMSO plate was prepared and the DMSO concentration was 0.5%. The cell plate, Orexin A plate, and DMSO plate were placed into FLIPR respectively, and the fluorescence values were read. • 3) EC70 value was calculated based on EC50 value of Orexin A. 5×EC70 solution was prepared and added into a 384-well compound plate with multichannel pipettes. The plate was placed on ice for preservation. • 4) In the FLIPR, the compound plate, 5×EC70 plate, cell plate and FLIPR tips were placed respectively. The program was run and the fluorescence values were read.
(§6) d) Data Analysis: Prism5.0 was used to analysis the data, and the IC50 value of the compound was calculated.

The next test addresses T2, hOX1R (Homo sapiens, UniProt O43613).
T2 construct: expressed in transfected cells
T2 sequence (O43613 1-425): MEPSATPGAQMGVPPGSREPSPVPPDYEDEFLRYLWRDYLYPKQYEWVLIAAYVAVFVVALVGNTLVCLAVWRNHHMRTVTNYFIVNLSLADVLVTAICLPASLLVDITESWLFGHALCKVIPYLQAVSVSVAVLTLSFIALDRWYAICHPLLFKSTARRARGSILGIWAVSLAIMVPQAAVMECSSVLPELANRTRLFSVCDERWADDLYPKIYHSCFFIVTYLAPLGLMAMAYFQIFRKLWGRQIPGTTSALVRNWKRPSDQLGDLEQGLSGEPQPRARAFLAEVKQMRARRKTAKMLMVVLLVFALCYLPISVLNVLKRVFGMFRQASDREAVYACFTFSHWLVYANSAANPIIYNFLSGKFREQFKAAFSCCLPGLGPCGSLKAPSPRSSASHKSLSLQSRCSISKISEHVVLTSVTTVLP
Description: In vitro test of OX1R: calcium signal change in cells detected with FLIPR. As to conditions: HEK293-OX1 stable cell strain, Fluo-4 AM calcium signal, Orexin A at EC70. It counts as cell-based. As to the method:
as §1, §2, §3, §4, §5, §6

[1] abbreviates: read-out: IC50 detected in FLIPR, hOX2R.
Setting [2] is: read-out: IC50 detected in FLIPR, hOX1R.

Where two headings read alike, the source gives them in different places.

Among the data in patent US10100047B2, “Piperidine derivatives as orexin receptor antagonist” (SHANGHAI HAIYAN PHARMACEUTICAL TECHNOLOGY CO., LTD., priority 2014, dated 2018) are IC50 values, retold here.

`Cc1ccc(-c2ncccn2)c(C(=O)N2C3CCC2C(F)(COc2ccc(F)cn2)CC3)c1` (centres unmarked) [Example 26]: the IC50 on hOX2R (setting [1]) is 37 nM; at hOX1R (setting [2]), 48 nM.
Regarding `Cc1ccc(-c2nccs2)c(C(=O)N2C3CC[C@H]2CC[C@@H]3OCc2ccc(F)cn2)c1` [Example 37], the IC50 came to 36 nM at hOX2R (IC50 detected in FLIPR, hOX2R) and 20 nM at hOX1R (IC50 detected in FLIPR, hOX1R).
For `Cc1ccc(-c2ncccn2)c(C(=O)N2C3CCC(COc4ncc(Cl)cc4F)C2CC3)c1` (centres unmarked) [Example 25], the figures for the half-inhibitory concentration (IC50) on hOX2R (setting [1]) and at hOX1R (setting [2]) were 124 nM and 113 nM, respectively.
Take `Cc1cccc(C(=O)N2C3CC[C@H]2CC[C@@H]3COc2ccc(F)cn2)c1` [Example 21]: the figures for the IC50 at hOX2R (setting [1]) and on hOX1R (setting [2]) were 741 nM and 567 nM, respectively.
